# Experimental data published in patent publication US6969711B2, “Cyclic diamine compounds and medicine containing the same” (Kowa Company, Ltd., priority 1997, dated 2005).
row,SMILES,melting point
1,"CC(=O)Oc1cc(C(C)C)c(NC(=O)CN2CCN(CCSc3nc4ccccc4o3)CC2)c(C(C)C)c1 [Example 73, 2-[4-[2-(benzoxazol-2-ylthio)ethyl]piperazin-1-yl]-N-(4-acetoxy-2,6-diisopropylphenyl)acetamide]",126 to 129 °C
2,"CC(C)c1cc(OS(C)(=O)=O)cc(C(C)C)c1NC(=O)CN1CCN(CCSc2nc3ccccc3o2)CC1 [Example 74, 2-[4-[2-(benzoxazol-2-ylthio)ethyl]piperazin-1-yl]-N-(2,6-diisopropyl-4-mesyloxyphenyl)acetamide]",115 to 117 °C
3,"COc1cc(C(C)C)c(NC(=O)CN2CCN(CCSc3nc4ccccc4o3)CC2)c(C(C)C)c1 [Example 75, 2-[4-[2-(benzoxazol-2-ylthio)ethyl]piperazin-1-yl]-N-(2,6-diisopropyl-4-methoxyphenyl)acetamide]",115 to 117 °C
4,"CCOC(=O)COc1cc(C(C)C)c(NC(=O)CN2CCN(CCSc3nc4ccccc4o3)CC2)c(C(C)C)c1 [Example 77, 2-[4-[2-(benzoxazol-2-ylthio)ethyl]piperazin-1-yl]-N-[2,6-diisopropyl-4-ethoxycarbonylmethyloxyphenyl)acetamide]",118 to 120 °C
5,"CCOCCOc1cc(C(C)C)c(NC(=O)CN2CCN(CCSc3nc4ccccc4o3)CC2)c(C(C)C)c1 [Example 78, 2-[4-[2-(benzoxazol-2-ylthio)ethyl]piperazin-1-yl]-N-[2,6-diisopropyl-4-(2-ethoxyethyl)oxyphenyl)acetamide]",92 to 95 °C
6,"CC(C)c1cccc(C(C)C)c1NC(=O)NCCN1CCN(CCSc2nc3ccccc3o2)CC1 [Example 79, N-[2-[4-[2-(benzoxazol-2-ylthio)-ethyl]piperazin-1-yl]ethyl]-N′-(2,6-diisopropylphenyl)urea]",152 to 153 °C
7,"CC(C)c1cccc(C(C)C)c1NC(=O)NCCN1CCN(CCSc2nc3ccccc3[nH]2)CC1 [Example 80, N-[2-[4-[2-(benzimidazol-2-ylthio)ethyl]piperazin-1-yl]ethyl]-N′-(2,6-diisopropylphenyl)urea]",120 to 122 °C
8,"CC(C)c1cccc(C(C)C)c1NC(=O)NCCN1CCN(CCSc2nc3ccccc3s2)CC1 [Example 81, N-[2-[4-[2-(benzothiazole-2-ylthio)ethyl]piperazin-1-yl]ethyl]-N′-(2,6-diisopropylphenyl)urea]",147 to 149 °C
9,"COC(=O)c1cccc2nc(SCCN3CCN(CCNC(=O)Nc4c(C(C)C)cccc4C(C)C)CC3)oc12 [Example 82, N-[2-[4-[2-(7-methoxycarbonylbenzoxazol-2-ylthio)ethyl]piperazin-1-yl]ethyl]-N′-(2,6-diisopropylphenyl)urea]",186 to 188 °C
10,"CC(C)c1cccc(C(C)C)c1NC(=O)NCCN1CCN(CCSc2nc3ncccc3o2)CC1 [Example 83, N-[2-[4-[2-(oxazolo[4,5-b]pyridine-2-ylthio)ethyl]piperazin-1-yl]ethyl]-N′-(2,6-diisopropylphenyl)urea]",175 to 176 °C
11,"CC(C)c1cccc(C(C)C)c1NC(=O)CN1CCN(CCSc2nc3cccc(C(F)(F)F)c3o2)CC1 [Example 85, 2-[4-[2-(7-trifluoromethylbenzoxazol-2-ylthio)ethyl]piperazin-1-yl]-N-(2,6-diisopropylphenyl)acetamide]",135 to 137 °C (dec.)
12,"COc1cc(C(C)C)c(NC(=O)CN2CCN(CCSc3nc4cccc(C(F)(F)F)c4o3)CC2)c(C(C)C)c1 [Example 86, 2-[4-[2-(7-trifluoromethylbenzoxazol-2-ylthio)ethyl]piperazin-1-yl]-N-(2,6-diisopropyl-4-methoxyphenyl)acetamide]",122 to 123 °C
13,"CC(C)c1ccc([N+](=O)[O-])c(C(C)C)c1NC(=O)CN1CCN(CCSc2nc3cccc(C(F)(F)F)c3o2)CC1 [Example 87, 2-[4-[2-(7-trifluoromethylbenzoxazol-2-ylthio)ethyl]piperazin-1-yl]-N-(2,6-diisopropyl-3-nitrophenyl)acetamide]",115 to 117 °C
14,"CCSc1cc(C)nc(SCC)c1NC(=O)CN1CCN(CCSc2nc3cccc(C(F)(F)F)c3o2)CC1 [Example 89, 2-[4-[2-(7-trifluoromethylbenzoxazol-2-ylthio)ethyl]piperazin-1-yl]-N-[2,4-bis(ethylthio)-6-methyl-3-pyridyl]acetamide]",107 to 108 °C
15,"CC(C)c1cccc(C(C)C)c1NC(=O)CN1CCCN(CCCSc2nc3cccc(C(F)(F)F)c3o2)CC1 [Example 91, 2-[4-[3-(7-trifluoromethylbenzoxazol-2-ylthio)propyl]homopiperazin-1-yl]-N-(2,6-diisopropylphenyl)acetamide]",77 to 79 °C
16,"COc1cc(C(C)C)c(NC(=O)CN2CCN(CCSc3nc4cccc(C(C)=O)c4o3)CC2)c(C(C)C)c1 [Example 93, 2-[4-[2-(7-acetylbenzoxazol-2-ylthio)ethyl]piperazin-1-yl]-N-(2,6-diisopropyl-4-methoxyphenyl)acetamide]",185 to 186 °C

row,SMILES,melting point
1,"CC(=O)c1cccc2nc(SCCCN3CCCN(CC(=O)Nc4c(C(C)C)cccc4C(C)C)CC3)oc12 [Example 94, 2-[4-[3-(7-acetylbenzoxazol-2-ylthio)propyl]homopiperazin-1-yl]-N-(2,6-diisopropylphenyl)acetamide]",86 to 88 °C
2,"CC(C)c1cccc(C(C)C)c1NC(=O)CN1CCN(CCSc2nc3cccc(C(C)(C)C)c3o2)CC1 [Example 95, 2-[4-[2-(7-tert-butylbenzoxazol-2-ylthio)ethyl]piperazin-1-yl]-N-(2,6-diisopropylphenyl)acetamide]",138 to 140 °C
3,"Cc1c(Cl)cc(C(C)C)c2oc(SCCN3CCN(CC(=O)Nc4c(C(C)C)cccc4C(C)C)CC3)nc12 [Example 97, 2-[4-[2-(5-chloro-7-isopropyl-4-methylbenzoxazol-2-ylthio)ethyl]piperazin-1-yl]-N-(2,6-diisopropylphenyl)acetamide]",162 to 163 °C
4,"COc1cc2oc(SCCN3CCN(CC(=O)Nc4c(C(C)C)cccc4C(C)C)CC3)nc2c(OC)c1OC [Example 98, 2-[4-[2-(4,5,6-trimethoxybenzoxazol-2-ylthio)ethyl]piperazin-1-yl]-N-(2,6-diisopropylphenyl)acetamide]",126 to 129 °C (dec.)
5,"COC(=O)c1ccc2nc(SCCN3CCN(CC(=O)Nc4c(C(C)C)cccc4C(C)C)CC3)oc2c1C(=O)OC [Example 99, 2-[4-[2-(6,7-bis(methoxycarbonyl)benzoxazol-2-ylthio]ethyl]piperazin-1-yl]-N-(2,6-diisopropylphenyl)acetamide]",186 to 187 °C
6,"COCc1ccc2nc(SCCN3CCN(CC(=O)Nc4c(C(C)C)cccc4C(C)C)CC3)oc2c1COC [Example 100, 2-[4-[2-(6,7-bis(methoxymethyl)benzoxazol-2-ylthio]ethyl]piperazin-1-yl]-N-(2,6-diisopropylphenyl)acetamide]",96 to 97 °C
7,"CCSc1cc(C)nc(SCC)c1NC(=O)CN1CCN(CCSc2nc3ccc(COC)c(COC)c3o2)CC1 [Example 101, 2-[4-[2-(6,7-bis(methoxymethyl)benzoxazol-2-ylthio)ethyl]piperazin-1-yl]-N-(2,4-bis(ethylthio)-6-methyl-3-pyridyl)acetamide]",118 to 120 °C
8,"CC(C)c1cccc(C(C)C)c1NC(=O)CN1CCN(CCSc2nc3cccc(CO)c3o2)CC1 [Example 102, 2-[4-[2-(7-hydroxymethylbenzoxazol-2-ylthio]ethyl]piperazin-1-yl]-N-(2,6-diisopropylphenyl)acetamide]",138 to 139 °C
9,"CC(C)c1cccc(C(C)C)c1NC(=O)CN1CCN(CCSc2nc3cccc(-c4cc[nH]n4)c3o2)CC1 [Example 103, 2-[4-[2-[7-(pyrazol-3-yl)benzoxazol-2-ylthio]ethyl]piperazin-1-yl]-N-(2,6-diisopropylphenyl)acetamide]",181 to 183 °C
10,"CC(C)c1cccc(C(C)C)c1NC(=O)CN1CCN(CCSc2nc3cccc([N+](=O)[O-])c3o2)CC1 [Example 104, 2-[4-[2-(7-nitrobenzoxazol-2-ylthio)ethyl]-piperazin-1-yl]-N-(2,6-diisopropylphenyl)acetamide]",153 to 155 °C
11,"COc1cc(C(C)C)c(NC(=O)CN2CCN(CCSc3nc4cccc([N+](=O)[O-])c4o3)CC2)c(C(C)C)c1 [Example 105, 2-[4-[2-(7-nitrobenzoxazol-2-ylthio)ethyl]-piperazin-1-yl]-N-(2,6-diisopropyl-4-methoxyphenyl)acetamide]",165 to 166 °C
12,"Cc1cc(SC(C)C)c(NC(=O)CN2CCN(CCSc3nc4cccc([N+](=O)[O-])c4o3)CC2)c(SC(C)C)n1 [Example 107, 2-[4-[2-(7-nitrobenzoxazol-2-ylthio)ethyl]-piperazin-1-yl]-N-[2,4-bis(isopropylthio)-6-methyl-3-pyridyl]acetamide]",57 to 59 °C
13,"CCSC1=C(NC(=O)CN2CCN(CCSc3nc4c(C)c(Cl)cc(C(C)C)c4o3)CC2)C=CC(C)(SCC)N1 (centres unmarked) [Example 109, 2-[4-[2-(5-chloro-7-isopropyl-4-methylbenzoxazol-2-ylthio)ethyl]piperazin-1-yl]-N-[2,6-bis(ethylthio)-6-methyl-3-pyridyl]acetamide]",120 to 122 °C
14,"COc1ccc(C(C)C)c(NC(=O)CN2CCN(CCCSc3nc4c(C)c(Cl)cc(C(C)C)c4o3)CC2)c1C(C)C [Example 110, 2-[4-[3-(5-chloro-7-isopropyl-4-methylbenzoxazol-2-ylthio)propyl]piperazin-1-yl]-N-(2,6-diisopropyl-3-methoxyphenyl)acetamide]",126 to 127 °C
15,"CSc1cccc2nc(SCCN3CCN(CC(=O)Nc4c(C(C)C)cccc4C(C)C)CC3)oc12 [Example 112, 2-[4-[2-(7-methylthiobenzoxazol-2-ylthio)ethyl]piperazin-1-yl]-N-(2,6-diisopropylphenyl)acetamide]",120 to 121 °C
16,"CCCCCCCN(CCN1CCN(CCSc2nc3c(C)c(Cl)cc(C(C)C)c3o2)CC1)C(=O)Nc1c(C(C)C)cc(O)cc1C(C)C [Example 116, N-[2-[4-[2-(5-chloro-7-isopropyl-4-methylbenzoxazol-2-ylthio)ethyl]piperazin-1-yl]ethyl]-N′-(2,6-diisopropyl-4-hydroxyphenyl)-N-heptylurea]",138 to 140 °C
